Measurements: patent US7642252B2, “Angiogenesis inhibition by cephalotaxine alkaloids, derivatives, compositions and uses thereof” (Chemgenex Pharmaceuticals, Inc., priority 2002, dated 2010)
Marks after values point to notes of the source that are not given here.

What was measured:
[1] = tested on: chorioallantoic membrane (CAM); test: Early chicken chorioallantoic membrane (CAM) assay of angiogenesis; format: in vivo; conditions: for CAM increase (fold): Day 4 to Day 5
Experimental: Fertilized chicken eggs (HiChick Breeding Co, Kapunda, South Australia) were incubated for three days at 38° C. On Day 3 the embryos were cracked out of the egg and into a cup made of plastic piping, with plastic film stretched over the top to form a hammock for the egg to be suspended in. Two ml of DMEM containing penicillin and streptomycin was added to each cup prior to the egg being added. A Petri dish on the top maintained sterility. Incubation continued in a humidified 37° C. incubator.
On Day 4 the chorioallantoic membrane (CAM) begins to grow, and pictures were taken of each embryo at ×5 to measure the CAM area using image analysis software (Video Pro 32, Leading Edge Pty Ltd, South Australia). Embryos were then grouped according to their CAM area, with a control embryo in each for comparison. There were four matched embryos, treated with 6.25, 12.5 and 25 ng of homoharringtonine. Grouping is critical as in these early developmental stages changes in the CAM growth are dramatic. Relatively small differences in size on Day 4 translate to large differences in the CAM on Day 5, making it impossible to compare treatments. Substances were applied in methylcellulose discs, which were first dried under vacuum overnight. The methylcellulose discs were applied to the top of the CAM, and at the beginning of treatment were at least three to four-fold bigger than the CAM area, meaning treatment covered the entire CAM surface.
On Day 5 skim milk with contrast medium was injected into the CAM. Pictures were then taken at various levels of magnification up to ×63. Quantitative measurements were made from ×5 pictures. CAM area, and vein and artery lengths were measured using image analysis (Video Pro 32, Leading Edge Pty Ltd, South Australia). Relative vessel lengths were then calculated as the total length/CAM area. Statistical analysis was made using SigmaStat and OneWay ANOVA with p<0.05 as the level of significance.
The normal organization of the CAM is uniform, with the major vein draining towards the left, and the artery branches coming over the edge of the top and bottom of the CAM. FIG. 3 schematically illustrates tracing of the vein and artery branches, as performed for the measurement of vessel lengths.
The angiogenic inhibitor, homoharringtonine, was obtained from ChemGenex Therapeutics, Inc. (Menlo Park, Calif.) and was made to the appropriate concentration in sterile water. […] Homoharringtonine was applied at 6.25, 12.5 and 25 ng (11.3, 22.5 and 45 nM) doses, and compared with water treated controls. Homoharringtonine reduced the growth of the CAM to 42% of the control in the 25 ng treated CAM. […] The vein, artery and total vessel lengths were reduced to 15%, 18% and 17% of control, respectively.

[2] = tested on: chorioallantoic membrane (CAM); test: as above; format: in vivo; conditions: taxol treated CAM, dose not given
[3] = 6.25 ng, Day 5, mean ± SEM, n = 6
[4] = 25 ng, Day 5, mean ± SEM, n = 6

| Compound | CAM increase (fold) ([1]; 6.25 ng, mean ± SEM, n = 6) | Artery length [1, 3] [pixels] | Relative artery length [1, 3] | Relative total vessel length [1, 3] | Relative vein length [1, 3] | Vein length [1, 3] [pixels] | Relative artery length ([1]; 12.5 ng, Day 5, mean ± SEM, n = 6) | Embryo lethality ([1]; 25 ng dose) | CAM increase (fold) ([1]; 25 ng, mean ± SEM, n = 6) | Artery length [1, 4] | Total vessel length [1, 4] | Vein length [1, 4] | Embryo lethality ([1]; initial doses (higher than 25 ng, not given)) | Qualitative changes of CAM at higher magnification (FIG. 5) [2] |
| --- | --- | --- | --- | --- | --- | --- | --- | --- | --- | --- | --- | --- | --- | --- |
| COC(=O)C[C@](O)(CCCC(C)(C)O)C(=O)O[C@@H]1C(OC)=C[C@]23CCCN2CCc2cc4c(cc2[C@H]13)OCO4 [Homoharringtonine, cephalotaxine, 4-methyl-2-hydroxy-2-(4-hydroxy-4-methylpentyl) butanediocate ester] | 7.0 ± 0.4^a fold | 1573 ± 516 | 31.6 ± 4.5^ab length/CAM area | 63.2 ± 7.7^b length/CAM area | 31.6 ± 4.6^b length/CAM area | 1482 ± 499 | 31.8 ± 3.7^ab length/CAM area | killed one of the smaller embryos | 4.3 ± 0.7^a fold | 551 ± 265^a pixels | 909 ± 396^a pixels | 359 ± 143^a pixels | resulted in the death of the embryos |  |
| CC(=O)O[C@H]1C(=O)[C@@]2(C)[C@H]([C@H](OC(=O)c3ccccc3)[C@]3(O)C[C@H](OC(=O)[C@H](O)[C@@H](NC(=O)c4ccccc4)c4ccccc4)C(C)=C1C3(C)C)[C@]1(OC(C)=O)CO[C@@H]1C[C@@H]2O [taxol] |  |  |  |  |  |  |  |  |  |  |  |  |  | diffuse leakage of the red blood cells outside the vessels and the skeletons of larger vessels with no remaining blood flow |
